Experimental data reported in ChEMBL document CHEMBL5120775, “Boosting the Discovery of Small Molecule Inhibitors of Glucose-6-Phosphate Dehydrogenase for the Treatment of Cancer, Infectious Diseases, and Inflammation” (J Med Chem, 2022).

Assays:
[1] = Selectivity index, ratio of Ki for human G6PD to Ki for Plasmodium falciparum GluPho
[2] = Binding affinity to Plasmodium falciparum GluPho
[3] = Inhibition of Plasmodium falciparum recombinant GluPho measured for 20 to 30 mins by multiwell plate reader method
[4] = molecular target: T1, Glucose-6-phosphate 1-dehydrogenase (Homo sapiens, UniProt P11413); test: Inhibition of human C-terminal His tagged G6PD overexpressed in Escherichia coli BL21
[5] = molecular target: T1, Glucose-6-phosphate 1-dehydrogenase; test: Inhibition of human G6PD
[6] = Inhibition of Trypanosoma cruzi G6PD
[7] = test system: Trypanosoma cruzi; test: Trypanocidal activity against Trypanosoma cruzi assessed as lethal dose; type: functional; conditions: read-out: LD50 (the source's name)
[8] = Inhibition of Trypanosoma cruzi G6PD expressed in Escherichia coli BL21 (DE3) by G6PDH-diaphorase-resorufin coupled assay
[9] = molecular target: T1, Glucose-6-phosphate 1-dehydrogenase; test: Binding affinity to G6PD (unknown origin) assessed as Gibbs free energy
[10] = molecular target: T1, Glucose-6-phosphate 1-dehydrogenase; test: Binding affinity to human G6PD
[11] = test system: Plasmodium falciparum; test: Antimalarial activity against Plasmodium falciparum 3D7 incubated for 48 hrs followed by [3H]-hypoxanthine addition measured after 24 hrs by microdilution method; type: functional, organism-based
[12] = Antiproliferative activity against human MCF10AT1 cells; type: functional, cell-based
[13] = Inhibition of Plasmodium falciparum GluPho
[14] = Inhibition of Plasmodium vivax G6PD

T1 sequence (P11413 whole entry): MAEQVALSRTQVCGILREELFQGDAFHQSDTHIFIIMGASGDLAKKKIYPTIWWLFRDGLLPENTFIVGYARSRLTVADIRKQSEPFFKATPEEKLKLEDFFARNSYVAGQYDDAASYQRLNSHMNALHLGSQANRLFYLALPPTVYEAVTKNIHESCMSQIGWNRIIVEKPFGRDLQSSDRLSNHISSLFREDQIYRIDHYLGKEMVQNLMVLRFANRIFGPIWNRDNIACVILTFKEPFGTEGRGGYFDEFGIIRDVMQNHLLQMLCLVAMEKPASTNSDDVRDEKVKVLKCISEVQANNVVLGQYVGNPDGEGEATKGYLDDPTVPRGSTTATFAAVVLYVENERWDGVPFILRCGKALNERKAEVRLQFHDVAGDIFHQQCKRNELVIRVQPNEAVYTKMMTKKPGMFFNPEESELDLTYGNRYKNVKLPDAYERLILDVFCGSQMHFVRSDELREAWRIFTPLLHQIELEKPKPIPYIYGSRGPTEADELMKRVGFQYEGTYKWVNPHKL

In the case of `CO[C@H]1O[C@H](CSCCC#N)[C@@H](O)[C@H](O)[C@H]1O`, the Ratio Ki [1] is reported as > 0.8 and the Ki [2] is reported as 259 µM.

With `Cc1cccc(N2C(=O)NC(=O)/C(=C/c3ccc(-c4ccc([N+](=O)[O-])cc4C)o3)C2=O)c1` the IC50 [3] was 5.1 µM.

Compound `O=C1Nc2ccc(Br)cc2/C1=C1/SC(=S)N(C(Cc2ccccc2)C(=O)O)C1=O` (stereo unspecified) has an IC50 [4] of 3.1 µM.

In the case of `COc1ccc(-n2c(-c3cccnc3)nc3ccccc3c2=O)cc1`, the IC50 [4] is reported as 3 µM, the IC50 [5] is reported as 3 µM and the IC50 [3] is reported as 7.6 µM.

With `CO[C@H]1O[C@H](CS(=O)(=O)CCCN)[C@@H](O)[C@H](O)[C@H]1O` the Ratio Ki [1] was 1 and the Ki [2] was 34.4 µM.

In the case of `C[C@]12CC[C@H](O)C[C@@H]1CC[C@@H]1[C@@H]2CC[C@]2(C)C(=O)[C@H](Br)C[C@@H]12` [16.ALPHA.-BROMOEPIANDROSTERONE], the IC50 [6] is reported as 0.086 µM and the LC50 [7] is reported as 12 µM.

`CCCCCCCn1cnc2sc(C(N)=O)c(C)c2c1=O` showed an IC50 [8] of 4.9 µM.

With `O=C(Cn1ccnc1[N+](=O)[O-])NCc1ccccc1` [BENZNIDAZOLE] the IC50 [6] was 8.5 µM.

For `O=C(Nc1ccc(Cl)cc1)Nc1ncc([N+](=O)[O-])s1`, the deltaG [9] was -6.91 kcal/mol.

For `CO[C@H]1O[C@H](CS(=O)(=O)CCNC(=N)N)[C@@H](O)[C@H](O)[C@H]1O`, the Ki [10] was 16.8 µM, the Ratio Ki [1] was 0.5 and the Ki [2] was 32.4 µM.

Work on `CC(C)(C)c1ccc(Oc2ccc(N)cn2)cc1` [LIMANTRAFIN] yielded an IC50 [3] of 1.5 µM and an IC50 [11] of 0.97 µM.

Compound `CCN1CCC[C@@H]1CNC(=O)c1ccc2c(c1)NC(=O)/C(=C/c1ccccc1F)S2` has an IC50 [11] of 2.3 µM.

In the case of `O=c1c2ccccc2nc(-c2cccnc2)n1-c1ccc(Br)cn1`, the IC50 [4] is reported as 2.6 µM, the IC50 [5] is reported as 2.6 µM and the IC50 [3] is reported as 4.5 µM.

Work on `Cc1cccc(Nc2ncc3c(n2)CCCC3=O)c1` yielded an IC50 [6] of 0.63 µM.

In the case of `O=S(=O)(Nc1ccc(O)c2ccccc12)c1ccc(F)cc1`, the IC50 [3] is reported as 30 µM and the IC50 [11] is reported as 3.9 µM.

`CO[C@H]1O[C@H](CSCCN)[C@@H](O)[C@H](O)[C@H]1O` gave a Ratio Ki [1] of 26.

In the case of `Cc1ccc(Nc2ncc3c(n2)CCCC3=O)cc1`, the IC50 [6] is reported as 10 µM and the IC50 [8] is reported as 0.48 µM.

For `COc1ccc(-c2ccc(C=C3C(=O)NC(=O)NC3=O)o2)c([N+](=O)[O-])c1`, the IC50 [3] was 4.6 µM.

Work on `COc1ccc(N2CCN(c3nc(C)c4c(n3)CCCC4=O)CC2)cc1` yielded an IC50 [8] of 0.61 µM.

For `CO[C@H]1O[C@H](CS(=O)(=O)CCCNC(=N)N)[C@@H](O)[C@H](O)[C@H]1O`, the Ratio Ki [1] was 0.5 and the Ki [2] was 42.9 µM.

With `CO[C@H]1O[C@H](CS(=O)(=O)CCC#N)[C@@H](O)[C@H](O)[C@H]1O` the Ratio Ki [1] was > 2.9 and the Ki [2] was 68.8 µM.

In the case of `CO[C@H]1O[C@H](CS(=O)(=O)CCN)[C@@H](O)[C@H](O)[C@H]1O`, the Ki [10] is reported as > 400 µM, the Ratio Ki [1] is reported as > 18 and the Ki [2] is reported as 22.8 µM.

Compound `CO[C@H]1O[C@H](CSCCCN)[C@@H](O)[C@H](O)[C@H]1O` has a Ratio Ki [1] of 0.4 and a Ki [2] of 289 µM.

Work on `Cc1ccc(C)c(S(=O)(=O)Nc2ccc(O)c3ccccc23)c1` yielded an IC50 [4] of 0.2 µM, an IC50 [12] of 25 µM and an IC50 [3] of 22 µM. It also gave an IC50 [11] of 5.3 µM.

With `CO[C@H]1O[C@H](CSCCNC(=N)N)[C@@H](O)[C@H](O)[C@H]1O` the Ratio Ki [1] was > 4.4 and the Ki [2] was 45.6 µM.

`CCN1CCC[C@@H]1CNC(=O)c1ccc2c(c1)NC(=O)c1cccc(C)c1S2` gave an IC50 [13] of 0.19 µM and an IC50 [14] of 15.3 µM.

In the case of `COc1cc(/C=C2\C(=O)N(c3nc(-c4ccc(Cl)cc4)cs3)N=C2C)cc(OC)c1OC`, the IC50 [4] is reported as 0.6 µM and the IC50 [13] is reported as 1.7 µM.

With `O=C1NC(=O)N(c2ccc(O)cc2)C(=O)/C1=C\c1ccc(-c2ccccc2[N+](=O)[O-])o1` the IC50 [3] was 19.9 µM.
